Measured values: patent US11780843B2, “Compounds active towards nuclear receptors” (NUEVOLUTION A/S, priority 2020, dated 2023)
Like-named read-outs stand apart in the source and are kept apart here.

Columns and labels:
[1] = biological target: T1, RORγ ligand-binding domain (Homo sapiens, UniProt P51449); assay: RORγ Reporter Assay (Gal4); assay type: cell-based
T1 construct: Gal4 (galactose-responsive transcription factor); expressed in transfected cells; host or cells: HEK293, transient co-transfection
T1 sequence (P51449 269-508 limits assumed): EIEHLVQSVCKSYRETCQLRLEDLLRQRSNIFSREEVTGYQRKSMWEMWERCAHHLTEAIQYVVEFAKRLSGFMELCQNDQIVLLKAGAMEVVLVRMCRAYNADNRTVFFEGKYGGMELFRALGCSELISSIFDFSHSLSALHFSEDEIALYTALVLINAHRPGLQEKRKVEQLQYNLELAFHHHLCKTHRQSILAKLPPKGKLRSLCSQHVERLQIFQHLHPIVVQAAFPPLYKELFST
Method: The HEK293 cell line is co-transfected transiently with two plasmids, one with the RORγ ligand-binding domain fused to galactose-responsive transcription factor (Ga14), and the other with the luciferase reporter gene and Gal binding sites (UAS). This construction allows to determine the RORT activity in a cellular system through the measurement of luminescence.
A suspension of RORγ reporter cells was dispensed into plates and cultured 2 h at 37° C. and 5% CO2. Media formulation consisted in DMEM/F-12 medium (Gibco) supplemented with 10% heat inactivated FBS (Sigma-Aldrich), non-essential aminoacids (Sigma-Aldrich), 2 mM Glutamax (Gibco) and 100 U/mL penicillin (Sigma-Aldrich). Dose-response curves with compounds were prepared in 100% DMSO and further diluted 100-fold in culture medium. Compound solutions were added to the plate containing cells (final DMSO concentration of 0.1%) and incubated for 24 h at 37° C. and 5% CO2. Luciferase detection reagent was added to each well, and relative light units (RLUs) were quantified from each assay well using a plate reading luminometer.
Values of average RLU±S.D. were computed for all treatment sets, followed by the calculations of percent-reduction of RORT activity in response to respective test compound. The following formula was used: activity=100*[1−[[…]] where the theoretical minimum reduction (0% reduction). […] These calculations were performed in excel-fit software using X-204 model curve.

[2] = tested on: IL-17A secretion in activated PBMCs; assay: IL-17A secretion in activated PBMCs; assay type: cell-based; conditions: human PBMCs stimulated with CD3/CD28 Dynabeads for 48 h, absolute IC50
Source text: Heparin-treated whole blood from healthy human volunteers was supplied from Hospital de Sant Pau (Barcelona) under the approval of the local ethical review board for human studies (Hospital de Sant Pau, Barcelona, Spain). Human peripheral blood mononuclear cells (PBMCs) were isolated from healthy human volunteers by density gradient centrifugation using the Ficoll-Paque (GE Healthcare). PBMCs were suspended in cell culture medium which consisted on RPMI 1640 medium (Sigma-Aldrich) containing 10% heat inactivated fetal bovine serum (Sigma-Aldrich), 2 mM L-Glutamine (Gibco), 20 mM Hepes (Gibco) and 100 U/mL penicillin (Sigma-Aldrich). Cells were seeded in 384-well plate (DiscoverX), at 40,000 cells per well and cultured 2 h at 37° C. and 5% CO2.
Dose-response curves with compounds were prepared using a 5-fold serial dilution (10 concentrations) in 100% DMSO and further diluted 100-fold in culture medium. Compound solutions (5 μL) were added to the plate containing cells (final DMSO concentration of 0.1%) and incubated for 30 min. Then, cells were stimulated with CD3/CD28 Dynabeads (ThermoFisher, at a bead-to-cell ratio of 1:1) for 48 h at 37° C. and 5% CO2.
IL-17A levels in supernatant were determined by immunoassay using hIL17A QBeads (Intellicyt) and by fluorescence analysis in iQue flow cytometer following the manufacturer's instructions. Inhibition of IL-17A secretion was calculated using the following formula: inhibition=100*[1−[(x−mean basal condition)/(mean top condition—mean basal condition)]]. Activated DMSO-treated cells were used as top condition and activated GNE09461 (10 μM)-treated cells as basal condition.

[3] = HEK293 cells, luciferase reporter, 24 h incubation, absolute IC50, read-out: IC50

CCN(Cc1ccc(C(F)(F)F)cn1)c1ncnc2c1c(F)cn2C[C@@H]1CCN(CC(N)=O)C[C@H]1O (relative stereo) [P6-28″, rel-2-((3R,4R)-4-((4-(ethyl((5-(trifluoromethyl)pyridin-2-yl)methyl)amino)-5-fluoro-7H-pyrrolo[2,3-d]pyrimidin-7-yl)methyl)-3-hydroxypiperidin-1-yl)acetamide]
IC50 [1, 3]: 8.6 nM
IC50 ([2]; Homo sapiens, PBMC, 48 h): 53 nM

CCN(Cc1ccc(-n2cccn2)cc1)c1ncnc2c1ccn2C[C@@H]1CCN(CC(N)=O)C[C@H]1O (relative stereo) [P6-30″, rel-2-((3R,4R)-4-((4-((4-(1H-pyrazol-1-yl)benzyl)(ethyl)amino)-7H-pyrrolo[2,3-d]pyrimidin-7-yl)methyl)-3-hydroxypiperidin-1-yl)acetamide]
IC50 [1, 3]: 6.5 nM
IC50 ([2]; Homo sapiens, PBMC, 48 h): 100 nM

CCN(Cc1ccc(C(F)(F)F)c(F)c1)c1ncnc2c1ccn2C[C@@H]1CCN(CC(N)=O)C[C@H]1O (relative stereo) [P6-31″, rel-2-((3R,4R)-4-((4-(ethyl(3-fluoro-4-(trifluoromethyl)benzyl)amino)-7H-pyrrolo[2,3-d]pyrimidin-7-yl)methyl)-3-hydroxypiperidin-1-yl)acetamide]
IC50 [1, 3]: 1.9 nM
IC50 ([2]; Homo sapiens, PBMC, 48 h): 6 nM

CCN(Cc1ccc(C(F)(F)F)cc1F)c1ncnc2c1ccn2C[C@@H]1CCN(CC(N)=O)C[C@H]1O (relative stereo) [P6-32″, rel-2-((3R,4R)-4-((4-(ethyl(2-fluoro-4-(trifluoromethyl)benzyl)amino)-7H-pyrrolo[2,3-d]pyrimidin-7-yl)methyl)-3-hydroxypiperidin-1-yl)acetamide]
IC50 [1, 3]: 2 nM
IC50 ([2]; Homo sapiens, PBMC, 48 h): 8.4 nM

NC(=O)CN1CC[C@@H](Cn2ccc3c(N(Cc4ccc(-n5cccn5)cc4)C4CC4)ncnc32)[C@H](O)C1 (relative stereo) [P6-33″, rel-2-((3R,4R)-4-((4-((4-(1H-pyrazol-1-yl)benzyl)(cyclopropyl)amino)-7H-pyrrolo[2,3-d]pyrimidin-7-yl)methyl)-3-hydroxypiperidin-1-yl)acetamide]
IC50 [1, 3]: 8.5 nM
IC50 ([2]; Homo sapiens, PBMC, 48 h): 9.9 nM

CCN(Cc1ccc(-n2cccn2)cc1)c1ncnc2c1ccn2C[C@@]1(O)CCN(CC(N)=O)C[C@@H]1O (relative stereo) [R5-1″, rel-2-((3R,4R)-4-((4-((4-(1H-pyrazol-1-yl)benzyl)(ethyl)amino)-7H-pyrrolo[2,3-d]pyrimidin-7-yl)methyl)-3,4-dihydroxypiperidin-1-yl)acetamide]
IC50 [1, 3]: 13 nM
IC50 ([2]; Homo sapiens, PBMC, 48 h): 80 nM

NC(=O)CN1CC[C@](O)(Cn2ccc3c(N(Cc4ccc(-n5cccn5)cc4)C4CC4)ncnc32)[C@@H](O)C1 (relative stereo) [R5-2″, Rel-2-((3R,4R)-4-((4-((4-(1H-pyrazol-1-yl)benzyl)(cyclopropyl)amino)-7H-pyrrolo[2,3-d]pyrimidin-7-yl)methyl)-3,4-dihydroxypiperidin-1-yl)acetamide]
IC50 [1, 3]: 8.1 nM
IC50 ([2]; Homo sapiens, PBMC, 48 h): 7.4 nM

Cn1cc(-c2ccc(CN(c3ncnc4c3ccn4C[C@@]3(O)CCN(CC(N)=O)C[C@@H]3O)C3CC3)c(F)c2)cn1 (relative stereo) [R5-3″, rel-2-((3R,4R)-4-((4-(cyclopropyl(2-fluoro-4-(1-methyl-1H-pyrazol-4-yl)benzyl)amino)-7H-pyrrolo[2,3-d]pyrimidin-7-yl)methyl)-3,4-dihydroxypiperidin-1-yl)acetamide]
IC50 [1, 3]: 4 nM
IC50 ([2]; Homo sapiens, PBMC, 48 h): 11 nM

NC(=O)CN1CC[C@](O)(Cn2ccc3c(N(Cc4ccc(-n5cccn5)cc4F)C4CC4)ncnc32)[C@@H](O)C1 (relative stereo) [R5-4″, rel-2-((3R,4R)-4-((4-(cyclopropyl(2-fluoro-4-(1H-pyrazol-1-yl)benzyl)amino)-7H-pyrrolo[2,3-d]pyrimidin-7-yl)methyl)-3,4-dihydroxypiperidin-1-yl)acetamide]
IC50 [1, 3]: 4.3 nM
IC50 ([2]; Homo sapiens, PBMC, 48 h): 22 nM

NC(=O)CN1CC[C@](O)(Cn2ccc3c(N(Cc4ccc(C(F)(F)F)cc4)C4CC4)ncnc32)[C@@H](O)C1 (single isomer, unassigned) [Example L5-1-1-2]
IC50 [1, 3]: 2 nM
IC50 [2]: 2.3 nM

CCN(Cc1ccc(C(F)(F)F)cc1)c1ncnc2c1ccn2C[C@@]1(O)CCN(CC(N)=O)C[C@@H]1O (single isomer, unassigned) [Example L5-2-1-1]
IC50 [1, 3]: 1.4 nM
IC50 [2]: 2.7 nM

CCN(Cc1ccc(C(F)(F)F)cc1)c1ncnc2c1ccn2C[C@@]1(O)CCN(CC(N)=O)C[C@@H]1O (single isomer, unassigned) [Example L5-2-1-2]
IC50 [1, 3]: 2 nM
IC50 ([2]; Homo sapiens, PBMC, 48 h): 3.1 nM

CCN(Cc1ccc(C(F)(F)F)cc1F)c1ncnc2c1ccn2C[C@@]1(O)CCN(CC(N)=O)C[C@@H]1O (single isomer, unassigned) [Example L5-3-1-1]
IC50 [1, 3]: 3 nM
IC50 ([2]; Homo sapiens, PBMC, 48 h): 9.8 nM

CCN(Cc1ccc(C(F)(F)F)cc1F)c1ncnc2c1ccn2C[C@@]1(O)CCN(CC(N)=O)C[C@@H]1O (single isomer, unassigned) [Example L5-3-1-2]
IC50 [1, 3]: 4.4 nM
IC50 [2]: 10 nM

NC(=O)CN1CC[C@@H](Cn2ccc3c(N(Cc4ccc(C(F)(F)F)cc4)C4CC4)ncnc32)[C@H](O)C1 (single isomer, unassigned) [Example P6-13-1]
IC50 [1, 3]: 1.6 nM
IC50 ([1]; stated as a bound only (Tables 5 a, 6, 7), read-out: Gal4 assay IC50): < 100 nM
IC50 ([2]; Homo sapiens, PBMC, 48 h): 1.1 nM

NC(=O)CN1CC[C@@H](Cn2ccc3c(N(Cc4ccc(C(F)(F)F)cc4)C4CC4)ncnc32)[C@H](O)C1 (single isomer, unassigned) [Example P6-13-2]
IC50 [1, 3]: 2 nM
IC50 [2]: 1.3 nM

NC(=O)CN1CC[C@@H](Cn2cc(F)c3c(N(Cc4ccc(C(F)(F)F)cc4)C4CC4)ncnc32)[C@H](O)C1 (single isomer, unassigned) [Example P6-14-1]
IC50 [1, 3]: 3.8 nM
IC50 [2]: 18 nM

NC(=O)CN1CC[C@@H](Cn2cc(F)c3c(N(Cc4ccc(C(F)(F)F)cc4)C4CC4)ncnc32)[C@H](O)C1 (single isomer, unassigned) [Example P6-14-2]
IC50 [1, 3]: 1 nM
IC50 [2]: 1.7 nM

NC(=O)CN1CC[C@@H](Cn2ccc3c(N(Cc4ccc(C(F)(F)F)cn4)C4CC4)ncnc32)[C@H](O)C1 (single isomer, unassigned) [Example P6-23-1]
IC50 [1, 3]: 9.9 nM
IC50 ([2]; Homo sapiens, PBMC, 48 h): 59 nM

NC(=O)CN1CC[C@@H](Cn2ccc3c(N(Cc4ccc(C(F)(F)F)cn4)C4CC4)ncnc32)[C@H](O)C1 (single isomer, unassigned) [Example P6-23-2]
IC50 [1, 3]: 15 nM
IC50 [2]: 98 nM

CCN(Cc1ccc(C(F)(F)F)cc1)c1ncnc2c1ccn2C[C@@H]1CCN(CC(N)=O)C[C@H]1O (single isomer, unassigned) [Example P6-24-1]
IC50 [1, 3]: 4.9 nM
IC50 [2]: 9.9 nM

CCN(Cc1ccc(C(F)(F)F)cc1)c1ncnc2c1ccn2C[C@@H]1CCN(CC(N)=O)C[C@H]1O (single isomer, unassigned) [Example P6-24-2]
IC50 [1, 3]: 9.1 nM
IC50 [2]: 170 nM

CC(C)N(Cc1ccc(C(F)(F)F)cc1)c1ncnc2c1ccn2C[C@@H]1CCN(CC(N)=O)C[C@H]1O (single isomer, unassigned) [Example P6-25-1]
IC50 [1, 3]: 12 nM
IC50 ([2]; Homo sapiens, PBMC, 48 h): 110 nM

CC(C)N(Cc1ccc(C(F)(F)F)cc1)c1ncnc2c1ccn2C[C@@H]1CCN(CC(N)=O)C[C@H]1O (single isomer, unassigned) [Example P6-25-2]
IC50 [1, 3]: 30 nM
IC50 [2]: 130 nM

NC(=O)CN1CC[C@@H](Cn2cnc3c(N(Cc4ccc(C(F)(F)F)cc4)C4CC4)ncnc32)[C@H](O)C1 (single isomer, unassigned) [Example P6-26-2]
IC50 [1, 3]: 5 nM
IC50 ([2]; Homo sapiens, PBMC, 48 h): 65 nM
